Tested on: SK-BR-3
Assay: normalised response (% of control), CellTiter-Glo; higher = more viable cells (100 = DMSO, 0 = benzethonium chloride kill control)
Details: incubation time: 72 h
In short: (§1)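 Normalised signals at single concentrations make up the values. They come from breast cancer cell lines seeded (20 µl suspension) into 384-well plates with compound at 5 concentrations in 10-fold steps over a compound-specific 10,000-fold range, incubated 72 h, and read for CellTox Green fluorescence then CellTiter-Glo luminescence. Each plate was normalised to 0.1 % DMSO (100) and a positive kill control (0).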

Q: CCN(CC)CCCC(C)Nc1c2ccc(Cl)cc2nc2ccc(OC)cc12 (stereo not given) [Mepacrine] (5 nM) was tested. Which normalised response did it give?
A: 104%

Q: For CCCS(=O)(=O)Nc1ccc(F)c(C(=O)c2c[nH]c3ncc(-c4ccc(Cl)cc4)cc23)c1F [Vemurafenib] (10 nM), which normalised response is on record?
A: 71.8%

Q: How did the normalised response turn out when CCCS(=O)(=O)Nc1ccc(F)c(C(=O)c2c[nH]c3ncc(-c4ccc(Cl)cc4)cc23)c1F [Vemurafenib] (1 nM) was run?
A: 86.9%

Q: With CC1=C(/C=C/C(C)=C/C=C/C(C)=C/C(=O)O)C(C)(C)CCC1 [Tretinoin] (10 nM) as the compound, how does the normalised response read?
A: 97%

Q: Cc1ccc(-c2cc(C(F)(F)F)nn2-c2ccc(S(N)(=O)=O)cc2)cc1 [Celecoxib] (1 nM) was tested. Which normalised response did it give?
A: 102%

Q: Oc1ncc(N(CCCl)CCCl)c(O)n1 [Uracil mustard] (1 nM) was tested. Which normalised response did it give?
A: 99.7%

Q: Nc1ccccc1NC(=O)c1ccc(CNC(=O)OCc2cccnc2)cc1 [Entinostat] (1 nM) was tested. Which normalised response did it give?
A: 102%

Q: C=CC(=O)Nc1cc2c(Nc3ccc(F)c(Cl)c3)ncnc2cc1OCCCN1CCOCC1 [Canertinib] (1 nM) was tested. Which normalised response did it give?
A: 103%

Tested on: MCF-10A
Assay: as above
Details: incubation time: 72 h
In short: as §1

Q: How did the normalised response turn out when C=CC(=O)N1CCC[C@@H](n2nc(-c3ccc(Oc4ccccc4)cc3)c3c(N)ncnc32)C1 [Ibrutinib] (0.1 nM) was run?
A: 109%

Q: How did the normalised response turn out when Nc1nc2[nH]cc(CCc3ccc(C(=O)N[C@@H](CCC(=O)O)C(=O)O)cc3)c2c(=O)[nH]1 [Pemetrexed] (1 nM) was run?
A: 95.7%

Q: How did the normalised response turn out when COc1cc2nccc(Oc3ccc(NC(=O)Nc4cc(C)on4)c(Cl)c3)c2cc1OC [Tivozanib] (1 nM) was run?
A: 79%

Q: Which normalised response does the source give for COc1cc2c(NC3CCN(C(C)C)CC3)nc(C3CCCCC3)nc2cc1OCCCN1CCCC1 [UNC0638] (1 nM) here?
A: 84.2%

Q: How did the normalised response turn out when CNC(=O)c1cc(Oc2ccc(NC(=O)Nc3cc(C(C)(C)C)nn3-c3ccc4ncccc4c3)c(F)c2)ccn1 [Rebastinib] (0.1 nM) was run?
A: 109%

Q: Which normalised response does the source give for N#Cc1ccc(C(c2ccc(C#N)cc2)n2cncn2)cc1 [Letrozole] (1 nM) here?
A: 110%

Q: For CC[C@H](Nc1ncnc2[nH]cnc12)c1nc2cccc(F)c2c(=O)n1-c1ccccc1 [GS-1101] (1 nM), which normalised response is on record?
A: 79.2%

Q: With O=C(O)C(=O)O.[NH-][C@@H]1CCCC[C@H]1[NH-].[Pt+2] [Oxaliplatin] (10 nM) as the compound, how does the normalised response read?
A: 91%

Q: C=CC(=O)Nc1cc2c(Nc3ccc(F)c(Cl)c3)ncnc2cc1OCCCN1CCOCC1 [Canertinib] (10 nM) was tested. Which normalised response did it give?
A: 76.6%

Q: How did the normalised response turn out when CC(=O)Nc1cccc(-n2c(=O)n(C3CC3)c(=O)c3c(Nc4ccc(I)cc4F)n(C)c(=O)c(C)c32)c1 [Trametinib] (0.25 nM) was run?
A: 82.5%

Q: C=CC(=O)N1CCC[C@@H](n2nc(-c3ccc(Oc4ccccc4)cc3)c3c(N)ncnc32)C1 [Ibrutinib] (1 nM) was tested. Which normalised response did it give?
A: 111%

Q: With CCCCC(=O)OCC(=O)[C@]1(O)Cc2c(O)c3c(c(O)c2[C@@H](O[C@H]2C[C@H](NC(=O)C(F)(F)F)[C@H](O)[C@H](C)O2)C1)C(=O)c1c(OC)cccc1C3=O [Valrubicin] (0.5 nM) as the compound, how does the normalised response read?
A: 111%

Q: Which normalised response does the source give for COc1cc2nccc(Oc3ccc(NC(=O)Nc4cc(C)on4)c(Cl)c3)c2cc1OC [Tivozanib] (10 nM) here?
A: 90.3%

Q: Which normalised response does the source give for CCN(CC)CCCC(C)Nc1c2ccc(Cl)cc2nc2ccc(OC)cc12 (stereo not given) [Mepacrine] (5 nM) here?
A: 107%

Q: CCCS(=O)(=O)Nc1ccc(F)c(C(=O)c2c[nH]c3ncc(-c4ccc(Cl)cc4)cc23)c1F [Vemurafenib] (10 nM) was tested. Which normalised response did it give?
A: 89.2%

Q: With CCCS(=O)(=O)Nc1ccc(F)c(C(=O)c2c[nH]c3ncc(-c4ccc(Cl)cc4)cc23)c1F [Vemurafenib] (1 nM) as the compound, how does the normalised response read?
A: 82.1%

Q: CC1=C(/C=C/C(C)=C/C=C/C(C)=C/C(=O)O)C(C)(C)CCC1 [Tretinoin] (10 nM) was tested. Which normalised response did it give?
A: 83.7%

Q: Which normalised response does the source give for Cc1ccc(-c2cc(C(F)(F)F)nn2-c2ccc(S(N)(=O)=O)cc2)cc1 [Celecoxib] (1 nM) here?
A: 98.8%

Q: For Oc1ncc(N(CCCl)CCCl)c(O)n1 [Uracil mustard] (1 nM), which normalised response is on record?
A: 105%

Q: With Nc1ccccc1NC(=O)c1ccc(CNC(=O)OCc2cccnc2)cc1 [Entinostat] (1 nM) as the compound, how does the normalised response read?
A: 98.1%

Q: How did the normalised response turn out when C=CC(=O)Nc1cc2c(Nc3ccc(F)c(Cl)c3)ncnc2cc1OCCCN1CCOCC1 [Canertinib] (1 nM) was run?
A: 108%

Tested on: HCC1937
Assay: as above
Details: incubation time: 72 h
In short: as §1

Q: How did the normalised response turn out when C=CC(=O)N1CCC[C@@H](n2nc(-c3ccc(Oc4ccccc4)cc3)c3c(N)ncnc32)C1 [Ibrutinib] (0.1 nM) was run?
A: 97.3%

Q: Which normalised response does the source give for Nc1nc2[nH]cc(CCc3ccc(C(=O)N[C@@H](CCC(=O)O)C(=O)O)cc3)c2c(=O)[nH]1 [Pemetrexed] (1 nM) here?
A: 96.8%

Q: Which normalised response does the source give for COc1cc2nccc(Oc3ccc(NC(=O)Nc4cc(C)on4)c(Cl)c3)c2cc1OC [Tivozanib] (1 nM) here?
A: 92.7%

Q: How did the normalised response turn out when COc1cc2c(NC3CCN(C(C)C)CC3)nc(C3CCCCC3)nc2cc1OCCCN1CCCC1 [UNC0638] (1 nM) was run?
A: 95.3%

Q: For CNC(=O)c1cc(Oc2ccc(NC(=O)Nc3cc(C(C)(C)C)nn3-c3ccc4ncccc4c3)c(F)c2)ccn1 [Rebastinib] (0.1 nM), which normalised response is on record?
A: 107%

Q: N#Cc1ccc(C(c2ccc(C#N)cc2)n2cncn2)cc1 [Letrozole] (1 nM) was tested. Which normalised response did it give?
A: 89.2%

Q: With CC[C@H](Nc1ncnc2[nH]cnc12)c1nc2cccc(F)c2c(=O)n1-c1ccccc1 [GS-1101] (1 nM) as the compound, how does the normalised response read?
A: 91.6%

Q: O=C(O)C(=O)O.[NH-][C@@H]1CCCC[C@H]1[NH-].[Pt+2] [Oxaliplatin] (10 nM) was tested. Which normalised response did it give?
A: 94.8%

Q: Which normalised response does the source give for C=CC(=O)Nc1cc2c(Nc3ccc(F)c(Cl)c3)ncnc2cc1OCCCN1CCOCC1 [Canertinib] (10 nM) here?
A: 89.5%

Q: With CC(=O)Nc1cccc(-n2c(=O)n(C3CC3)c(=O)c3c(Nc4ccc(I)cc4F)n(C)c(=O)c(C)c32)c1 [Trametinib] (0.25 nM) as the compound, how does the normalised response read?
A: 99.2%

Q: C=CC(=O)N1CCC[C@@H](n2nc(-c3ccc(Oc4ccccc4)cc3)c3c(N)ncnc32)C1 [Ibrutinib] (1 nM) was tested. Which normalised response did it give?
A: 95.3%

Q: How did the normalised response turn out when CCCCC(=O)OCC(=O)[C@]1(O)Cc2c(O)c3c(c(O)c2[C@@H](O[C@H]2C[C@H](NC(=O)C(F)(F)F)[C@H](O)[C@H](C)O2)C1)C(=O)c1c(OC)cccc1C3=O [Valrubicin] (0.5 nM) was run?
A: 98.3%

Q: With COc1cc2nccc(Oc3ccc(NC(=O)Nc4cc(C)on4)c(Cl)c3)c2cc1OC [Tivozanib] (10 nM) as the compound, how does the normalised response read?
A: 98.7%

Q: CCN(CC)CCCC(C)Nc1c2ccc(Cl)cc2nc2ccc(OC)cc12 (stereo not given) [Mepacrine] (5 nM) was tested. Which normalised response did it give?
A: 102%

Q: Which normalised response does the source give for CCCS(=O)(=O)Nc1ccc(F)c(C(=O)c2c[nH]c3ncc(-c4ccc(Cl)cc4)cc23)c1F [Vemurafenib] (10 nM) here?
A: 98.8%

Q: How did the normalised response turn out when CCCS(=O)(=O)Nc1ccc(F)c(C(=O)c2c[nH]c3ncc(-c4ccc(Cl)cc4)cc23)c1F [Vemurafenib] (1 nM) was run?
A: 91.5%

Q: Which normalised response does the source give for CC1=C(/C=C/C(C)=C/C=C/C(C)=C/C(=O)O)C(C)(C)CCC1 [Tretinoin] (10 nM) here?
A: 98%

Q: Which normalised response does the source give for Cc1ccc(-c2cc(C(F)(F)F)nn2-c2ccc(S(N)(=O)=O)cc2)cc1 [Celecoxib] (1 nM) here?
A: 95.9%

Q: Which normalised response does the source give for Oc1ncc(N(CCCl)CCCl)c(O)n1 [Uracil mustard] (1 nM) here?
A: 103%

Q: For Nc1ccccc1NC(=O)c1ccc(CNC(=O)OCc2cccnc2)cc1 [Entinostat] (1 nM), which normalised response is on record?
A: 99.2%

Q: How did the normalised response turn out when C=CC(=O)Nc1cc2c(Nc3ccc(F)c(Cl)c3)ncnc2cc1OCCCN1CCOCC1 [Canertinib] (1 nM) was run?
A: 97.3%

Reference: the supplement of paper PMC4862054
